Consider 2 molecules from US4341770A, “Method of controlling ureaplasma infections” (Eli Lilly and Company, priority 1981, dated 1982).

≈ marks a conversion by molar mass, not a printed value.

Test [1] concerns Ureaplasma isolate 763T-2. Briefly: conventional broth-dilution assay, MIC against Ureaplasma isolate 763T-2. The test is classed as cell-based. The source says:
(§1) For example, in the conventional broth-dilution assay, OMT had minimal inhibitory concentrations (MIC's) against four isolates of Ureaplasma as shown in Table I.

Test [2] concerns Ureaplasma isolate 765T-3. Briefly: conventional broth-dilution assay, MIC against Ureaplasma isolate 765T-3. The test is classed as cell-based.
Description: as §1

The test system of test [3] is Ureaplasma isolate 773T-2. Briefly: conventional broth-dilution assay, MIC against Ureaplasma isolate 773T-2. The test is classed as cell-based.
Description: as §1

Test [4] has as its system Ureaplasma isolate 779T-3. Briefly: conventional broth-dilution assay, MIC against Ureaplasma isolate 779T-3. The test is classed as cell-based.
Description: as §1

A short description of test [5]: Treatment of naturally occurring pneumonia in calves with OMT (Example 1). The test is classed as in vivo. Particulars: for temperature averages of the calves: controls remained above 40° C. for 10 days; for calves that died: six of ten placebo-treated died. The procedure: Example one illustrates the useful in vivo activity of OMT against Ureaplasma. In the example OMT (free base) was administered in an aqueous propylene glycol solution, and non-medicated water and feed were provided to the animals ad libitum.
(§2) OMT was evaluated in calves for the treatment of naturally occurring pneumonia. Calves were purchased and transported to Lilly Research Laboratories, Greenfield, Indiana. The calves were weighed, bled, identified with eartags and allotted into pens soon after arrival. Rectal temperatures were taken and clinical observations were made daily.
(§3) Calves were put on test at the first signs of respiratory disease which included ocular and nasal discharges, pyrexia and/or depression.
(§4) Treated calves were injected intramuscularly with OMT in an aqueous propylene glycol vehicle. The treatment doses evaluated were 12.5 mg/kg and 25 mg/kg once a day for five days. Control calves were treated with placebo. There were 10 calves per group. Calves that died were examined at necropsy for lesions indicative of pneumomia. Surviving calves were killed seven days after the last treatment and examined for lesions at necropsy.

The test system of test [6] is Ureaplasma species. Briefly: Treatment of pneumonia in calves (Example 1): isolation of Ureaplasma from lung tissue. The test is classed as in vivo. The procedure: as §2, §3, §4
Another test has as its system Pasteurella species. Briefly: Treatment of pneumonia in calves (Example 1): control of Pasteurella. The test is classed as in vivo. The method, then: as §2, §3, §4
The nature of test [7]: Prevention of naturally occurring pneumonia in calves with OMT (Example 2). The test is classed as in vivo. Particulars: for cumulative mortality: 19 calves per group. The procedure:
OMT was evaluated in calves for the prevention and control of naturally occurring pneumonia. Calves were purchased and transported to Lilly Research Laboratories, Greenfield, Ind. Soon after arrival the calves were weighed, bled, identified with eartags and allotted into pens. There were 19 calves in the OMT-treated group and 19 calves in the nontreated control group.
OMT was prepared as an injectable in an aqueous propylene glycol vehicle. The treated calves were each injected subcutaneously with 35 mg/lb (77 mg/kg) of OMT within a day after arrival. At this dose and route of administration, the drug was expected, based on blood level studies, to persist for seven days in the treated calves. The calves were each retreated with the same dose seven days later. Rectal temperatures were taken and clinical observations were made daily. Calves that died were examined at necropsy for lesions indicative of pneumonia.

In a further test the test system is gram-positive bacteria. Conditions: taught by U.S. Pat. No. 3,459,853; cited from earlier work.
The test system of test [8] is Ureaplasma species. Conditions: background statement; cited from earlier work.
Setting [9] is: 12.5 mg/kg intramuscular once a day for five days.
Setting [10] is: 25 mg/kg intramuscular once a day for five days.
Where [11] appears, read: 77 mg/kg subcutaneous, repeated after seven days, 14-day observation.

For `CCC1OC(=O)CC(O)C(C)C(OC2OC(C)C(O)C(N(C)C)C2O)C(CC=O)CC(C)C(=O)C=CC(C)=CC1CO` (stereo not drawn) [OMT, 5-O-mycaminosyl tylonolide], the MIC in test [1] stood at 0.78 µg/mL (≈ 1.3 µM); in test [2], 1.56 µg/mL (≈ 2.61 µM); in [3] it was 1.56 µg/mL (≈ 2.61 µM); in test [4] it was 1.56 µg/mL (≈ 2.61 µM). Besides, the Scours entry in test [5] (setting [9]) is recorded as “reduced”; in [5] (setting [10]), “reduced”; in test [7] (setting [11]), “less severe”. For the same molecule, the ocular discharge entry in test [5] (setting [9]) and in test [5] (setting [10]) was “reduced” in each case. Moreover, the “temperature averages of the calves” value in [5] (setting [9]) and in [5] (setting [10]) was “lowered to normal by the second day of treatment” throughout. Moreover, the calves that died entry in test [5] (setting [9]) and in [5] (setting [10]) was “two of ten” in each case. Besides, the “Ureaplasma species isolated from lung tissue” value in the test with Ureaplasma species [6] (12.5 mg OMT/kg intramuscular once a day for five days, also isolated with placebo) is given as “isolated from lung tissue”. The “elimination of the Ureaplasma species from the animals” value in the test on Ureaplasma species [6] (setting [10]) is recorded as “eliminated the Ureaplasma species”. Further, in the test on Ureaplasma species [6] (25 mg/kg intramuscular once a day for five days, isolated from lung tissue of placebo calves), the “Ureaplasma species isolated from calves” value is on record as “not isolated”. Besides, the “control of Pasteurella species associated with this pneumonia” value in the test on Pasteurella species (setting [9]) and in the test on Pasteurella species (setting [10]) was “effectively controlled” in each case. Besides, the “preventing death of calves due to a severe pneumonia” value in test [7] (77 mg/kg subcutaneous, repeated after seven days) is “very effective in preventing death of calves”. The “nasal and ocular discharges” value in [7] (setting [11]) is “less severe”. The average temperatures entry in test [7] (77 mg/kg subcutaneous, repeated after seven days, 14-day observation, vs non-medicated controls) is given as “lower”. Further, in [7] (77 mg/kg subcutaneous, repeated after seven days, vs controls), the “alertness and condition of calves” value is “more alert and in better condition than the controls”. The cumulative mortality in test [7] (day 1, control 0) is 0; in test [7] (day 2, control 0) it was 0; in [7] (day 3, control 0), 0; in test [7] (day 4, control 1), 0; in test [7] (day 5, control 3), 0; in test [7] (day 6, control 5), 0. The cumulative mortality in test [7] (day 7, control 5) is on record as 0; in [7] (day 8, control 5), 0; in test [7] (day 9, control 9), 0; in [7] (day 10, control 11), 0; in [7] (day 11, control 13), 0; in test [7] (day 12, control 14) it was 0. Also, the cumulative mortality is recorded as 2 in test [7] (day 13, control 14) and 3 in [7] (day 14, control 15). In addition, the “calves that died with extensive pathologic lesions indicative of severe pneumonia” value in test [7] (necropsy, 14 of the 15 control calves) worked out at 3 calves. In the test with gram-positive bacteria, the “inhibition of gram-positive bacteria” value is “inhibited gram-positive bacteria”.
With `CCC[C@@H]1C[C@@H](C(=O)N[C@@H]([C@H]2O[C@H](SC)[C@H](O)[C@@H](O)[C@H]2O)[C@@H](C)O)N(C)C1` [lincomycin], the “resistance of Ureaplasma species” value in the test with Ureaplasma species [8] is “resistant”.
